SMILES strings stand for the structures. Where a name gives a salt, the structure may show the parent alone.

T1 sequence (P26663 1658-1711): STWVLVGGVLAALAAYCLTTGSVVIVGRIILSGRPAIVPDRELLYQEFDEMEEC
T1 sequence (P26663 1027-1657): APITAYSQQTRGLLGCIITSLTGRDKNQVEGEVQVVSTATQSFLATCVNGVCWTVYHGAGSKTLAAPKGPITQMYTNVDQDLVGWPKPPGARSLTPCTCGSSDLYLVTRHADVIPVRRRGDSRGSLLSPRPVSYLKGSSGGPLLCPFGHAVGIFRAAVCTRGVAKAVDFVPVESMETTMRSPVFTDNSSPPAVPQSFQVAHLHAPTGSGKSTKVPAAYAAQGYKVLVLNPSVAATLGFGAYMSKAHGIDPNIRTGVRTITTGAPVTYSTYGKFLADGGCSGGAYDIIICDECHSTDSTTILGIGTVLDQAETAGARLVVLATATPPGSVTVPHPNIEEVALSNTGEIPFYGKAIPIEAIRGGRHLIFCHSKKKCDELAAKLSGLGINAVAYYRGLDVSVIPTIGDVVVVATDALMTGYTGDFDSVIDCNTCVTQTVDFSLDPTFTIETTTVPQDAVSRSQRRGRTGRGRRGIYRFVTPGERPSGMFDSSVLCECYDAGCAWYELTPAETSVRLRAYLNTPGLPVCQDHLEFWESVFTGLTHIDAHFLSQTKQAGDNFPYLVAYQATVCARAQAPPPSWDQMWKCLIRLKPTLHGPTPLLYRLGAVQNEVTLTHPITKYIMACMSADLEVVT

The first assay has as its target T1, HCV NS3 protease (full length NS34a) (Hepatitis C virus genotype 1b, UniProt P26663).
T1 construct: The protease activity of the full length NS34a was measured using a FRET-based assay; made in house
Briefly: HCV NS3 protease assay (FRET, full length NS34a). Type of assay: biochemical. To be noted: IC50 values of 10-150 μM against the protease activity of the full length NS34a, or at least 40% inhibition of protease activity at a concentration of 100 μM. The method, boiled down:
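Full-length NS34a incubated with compound and an NS4AB cleavage-site FRET peptide (QXL520 quencher, 5-FAMsp fluorophore) in 50 mM Tris pH8, 20 mM DTT, 1% CHAPS, 10% glycerol, 5% DMSO. Fluorescence followed for 30 minutes at room temperature; IC50 from initial rates of replicate progress curves.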
One may read the IC50 as the point on the concentration scale where inhibition reaches its midpoint. Take `CC[C@@H](N[C@H](C)CC(N)=O)c1ccc(Cl)c(Oc2ccc(N)c(C(F)(F)F)c2)c1F` [Example 259]: the half-inhibitory concentration (IC50) is 10 to 150 µM. `CC[C@@H](N[C@H](C)CC(=O)NC[C@@H](C)O)c1ccc(Cl)c(Oc2ccccc2)c1F` [Example 268] yielded an IC50 of 10 to 150 µM.

Take `CC[C@@H](N[C@H](C)CC(=O)NC(C)(C)CO)c1ccc(Cl)c(Oc2ccccc2)c1F` [Example 269]: the half-inhibitory concentration (IC50) lay in the range of 10 to 150 µM. The same measure, in the same setting: with `N[C@H](CC1CCOCC1)c1ccc(Cl)c(Oc2ccccc2)c1F` [Example 276A, (R)-1-(4-Chloro-2-fluoro-3-phenoxy-phenyl)-2-(tetrahydro-pyran-4-yl)-ethylamine. hydrochloride] the figure was 10 to 150 µM; with `N[C@@H](CC1CCOCC1)c1ccc(Cl)c(Oc2ccccc2)c1F` [Example 276B, (S)-1-(4-Chloro-2-fluoro-3-phenoxy-phenyl)-2-(tetrahydro-pyran-4-yl)-ethylamine.hydrochloride], 10 to 150 µM; with `CCC(NCc1ccc[nH]1)c1ccc(F)c(Oc2ccccc2)c1F` (stereo not drawn) [Example 291], 10 to 150 µM.

Regarding `CCC(NCc1ncc[nH]1)c1ccc(F)c(Oc2ccccc2)c1F` (stereo not drawn) [Example 292], the IC50 lay within 10 to 150 µM. The same measure, in the same setting: with `NC(CCO)c1ccc(F)c(Oc2ccccc2)c1F` (stereo not drawn) [Example 294, 3-Amino-3-(2,4-difluoro-3-phenoxy-phenyl)-propan-1-ol.hydrochloride] the figure was 10 to 150 µM. In turn, `C[C@@H](CC(N)=O)N[C@@H](c1ccc(Cl)c(Oc2ccccc2)c1F)C1CCOCC1` [Example 299] showed an IC50 of 10 to 150 µM. The same measure, in the same setting: with `CC[C@@H](N[C@H](C)CC(=O)NC(C)C)c1ccc(Cl)c(Oc2ccccc2)c1F` [Example 304] the figure was 10 to 150 µM.

`CC[C@@H](N[C@H](C)CC(=O)NOC)c1ccc(Cl)c(Oc2ccccc2)c1F` [Example 307] registered an IC50 of 10 to 150 µM. Turning to `CC[C@@H](N[C@H](C)CC(=O)NCC(=O)OC)c1ccc(Cl)c(Oc2ccccc2)c1F` [Example 308], the IC50 is 10 to 150 µM. In turn, `CC[C@@H](N[C@@H](C)CC(=O)N[C@H]1C[C@@H](N)C1)c1ccc(Cl)c(Oc2ccccc2)c1F` [Example 320] gave an IC50 of 10 to 150 µM. The molecule `C[C@H](CC(N)=O)NCc1ccc(F)c(Oc2ccccc2)c1F` [Example 327] showed an IC50 of 10 to 150 µM.

Consider `CC[C@@H](N[C@@H](C)C(=O)N(C)C)c1ccc(Cl)c(Oc2ccccc2)c1F` [Example 332], for which the IC50 was in the range of 10 to 150 µM. Molecule `CC[C@@H](N[C@@H](C)CC(N)=O)c1ccc(Cl)c(Oc2ccc(F)cc2N)c1F` [Example 334] yielded an IC50 of 10 to 150 µM. On the same count and under the same terms, with `C[C@H](CC(N)=O)N[C@H](C)c1ccc(Cl)c(Oc2ccccc2)c1F` [Example 335] the figure was 10 to 150 µM. The same measure, in the same setting: with `C[C@@H](N)c1ccc(Cl)c(Oc2ccccc2)c1F` [Example 341] the figure was 10 to 150 µM; with `C[C@H](CC(N)=O)N[C@H](CCO)c1ccc(Cl)c(Oc2ccccc2)c1F` [Example 353], 10 to 150 µM. Still for that read-out and setting: with `NC(=O)C[C@@H](N)c1ccc(Cl)c(Oc2ccccc2)c1F` [Example 354] the figure was 10 to 150 µM. In turn, `CC[C@@H](N)c1ccc(Cl)c(Oc2ccc(NC(C)=O)nc2)c1F` [Example 355] came in with an IC50 of 10 to 150 µM. Still for that read-out and setting: with `CN[C@H](CCOC)c1ccc(Cl)c(Oc2ccccc2)c1F` [Example 359] the figure was 10 to 150 µM.

The assay is the same for the next values; noted with them: protease activity of full length NS34a, FRET peptide substrate; read-out: Activity IC50.
Consider `CC[C@H](N)c1ccc(Cl)c(Oc2ccccc2)c1Cl` [Example 261, (S)-1-(2,4-Dichloro-3-phenoxy-phenyl)-propylamine.hydrochloride], for which the IC50 came to 1.2 µM.

For `CC[C@@H](N)c1ccc(Cl)c(Oc2ccccc2)c1Cl` [Example 262], the IC50 was found to be 5.9 µM.

On to `CC[C@@H](N)c1ccc(Cl)c(Oc2ccc3c(c2)C(C)(C)CN3)c1F` [Example 270], for which the IC50 came out at 1.6 µM.

`C[C@H](CC(=O)NCCN)N[C@H](CC1CCOCC1)c1ccc(Cl)c(Oc2ccccc2)c1F` [Example 278]: the IC50 worked out at 3.9 µM. On the same count and under the same terms, with `CS(=O)(=O)Nc1cccc(Oc2c(F)ccc(CN[C@H]3CC[C@@H](N)CC3)c2F)c1` [Example 285] the figure was 2.4 µM; with `CS(=O)(=O)Nc1cccc(Oc2c(F)ccc(CNc3ccnc(N)c3)c2F)c1` [Example 286], 3 µM.

For `CC[C@@H](N[C@H](C)CC(N)=O)c1ccc(Cl)c(Oc2ccc(-c3cnco3)c(C)c2)c1F` [Example 318], the IC50 is 6.4 µM. Regarding `CC[C@@H](N[C@@H](C)CC(=O)NCCNC1CC1)c1ccc(Cl)c(Oc2ccccc2)c1F` [Example 321], the IC50 amounted to 1.6 µM.

In the case of `CC[C@@H](N[C@H](C)CC(N)=O)c1ccc(Cl)c(Oc2ccc3c(c2)C(C)(C)CN3)c1F` [Example 323], the IC50 was found to be 3.1 µM. Still for that read-out and setting: with `C[C@@H](CC(N)=O)NCc1ccc(F)c(Oc2ccccc2)c1F` [Example 326] the figure was 3.9 µM. `C[C@@H](CC(N)=O)NCc1ccc(Cl)c(Oc2ccccc2)c1F` [Example 328]: the 50% inhibitory concentration (IC50) was determined as 1.4 µM. Same read-out and setting: with `CC[C@H](Nc1ncc(CN)cn1)c1ccc(Cl)c(Oc2ccccc2)c1F` [Example 330] the figure was 1.1 µM. `C[C@@H](CC(N)=O)N[C@H](C)c1ccc(Cl)c(Oc2ccccc2)c1F` [Example 336]: the IC50 amounted to 1 µM. In the case of `COCC[C@@H](N)c1ccc(Cl)c(Oc2ccccc2)c1F` [Example 337, (R)-1-(4-Chloro-2-fluoro-3-phenoxy-phenyl)-3-methoxy-propylamine hydrochloride], the IC50 is 7.6 µM. For `N[C@@H](CCO)c1ccc(Cl)c(Oc2ccccc2)c1F` [Example 338, 3-Amino-3-(4-chloro-2-fluoro-3-phenoxy-phenyl)-propan-1-ol.hydrochloride], the IC50 was found to be 2 µM.

As to `C[C@H](CC(=O)NCCN)N[C@H](C)c1ccc(Cl)c(Oc2ccccc2)c1F` [Example 340], the half-maximal inhibitory concentration (IC50) was found to be 0.08 µM. With `C[C@H](N)c1ccc(Cl)c(Oc2ccccc2)c1F` [Example 342], the half-inhibitory concentration (IC50) amounted to 2.7 µM. The same measure, in the same setting: with `N[C@H](CCO)c1ccc(Cl)c(Oc2ccccc2)c1F` [Example 343] the figure was 6.3 µM; with `N[C@H](c1ccc(Cl)c(Oc2ccccc2)c1F)C1CCOCC1` [Example 344], 1.5 µM.

As for `Cc1cc(Oc2c(Cl)ccc([C@@H](N)C3CCOCC3)c2F)ccc1[N+](=O)[O-]` [Example 345], the 50% inhibitory concentration (IC50) amounted to 1.8 µM. On the same count and under the same terms, with `CCC(CC)[C@@H](N)c1ccc(Cl)c(Oc2ccccc2)c1F` [Example 346] the figure was 5 µM. The same measure, in the same setting: with `CCC(CC)[C@H](N)c1ccc(Cl)c(Oc2ccccc2)c1F` [Example 347] the figure was 2.7 µM. Take `C[C@H](CC(N)=O)N[C@H](c1ccc(Cl)c(Oc2ccccc2)c1F)C1CCOCC1` [Example 348]: the half-maximal inhibitory concentration (IC50) was 10 µM. Take `C[C@@H](CC(N)=O)N[C@@H](CCO)c1ccc(Cl)c(Oc2ccccc2)c1F` [Example 350]: the IC50 was 2.6 µM.

As to `C[C@H](CC(=O)NCCN)N[C@@H](CC1CCOCC1)c1ccc(Cl)c(Oc2ccccc2)c1F` [Example 351], the half-maximal inhibitory concentration (IC50) is 6.4 µM. Still for that read-out and setting: with `C[C@@H](CC(=O)NCCN)N[C@@H](CC1CCOCC1)c1ccc(Cl)c(Oc2ccccc2)c1F` [Example 352] the figure was 0.32 µM.

Take `N[C@@H](c1ccc(Cl)c(Oc2ccccc2)c1F)C1CCOCC1` [Example 356]: the IC50 was determined as 6.4 µM.

Turning to `N[C@H](CCF)c1ccc(Cl)c(Oc2ccccc2)c1F` [Example 357, (R)-1-(4-Chloro-2-fluoro-3-phenoxy-phenyl)-3-fluoro-propylamine.hydrochloride], the IC50 was 5.7 µM. With `C[C@@H](CC(N)=O)N[C@H](CCO)c1ccc(Cl)c(Oc2ccccc2)c1F` [Example 358], the concentration for half-maximal inhibition (IC50) came out at 0.91 µM.

Staying with this assay, now noted: read-out: Activity % inhibition @ 0.01 μM; 0.01 μM compound.
Broadly, the inhibition is the relative decrease from the control value, in per cent. As to `C[C@@H](CC(=O)NCCN)N[C@H](C)c1ccc(Cl)c(Oc2ccccc2)c1F` [Example 339], the inhibition at 0.01 µM was 65%.

The subject of the next assay is HCV subgenomic replicon in Huh-7 cells. Briefly: Replicon assay, EC50 luciferase readout. Type of assay: cell-based, hepatitis C virus (HCV). The following applies: Hepatitis C virus, Huh-7, replicon assay; set in line with previous observations; read-out: pre-determined EC50 set for the combination experiments. The method, then:
The activities of compounds of the invention against HCV in a cellular environment were analysed using a replicon assay as described below.
Thus, Huh-7 cells persistently infected with an HCV-RNA construct (Bartenschlager, R. Hepatitis C replicons: potential role for drug development. Nature Rev. Drug Discov. 1, 911-916 (2002)) comprising: 5′ and 3′ non-translated regions (NTR); the non-structural genes NS3 to NS5b; as well as the G418 drug resistance gene, neomycin, (for selection of cells carrying HCV replicon RNA) fused to the firefly Luciferase reporter gene (pFK13889luc-ubi-neoNS3-3′ET), were used to determine the cell based antiviral activity of compounds using luciferase activity as an indirect readout of HCV RNA load. In this assay […] huh-7 cells persistently infected with the HCV subgenomic replicon construct above were platedwell in a 96 well tissue culture plate. The cells were allowed to attach overnight in DMEM medium supplemented with 10% FBS 1% NEAA, and 250 μgml gentamicin. The following day the medium was replaced with 200 μlwell of fresh medium as described above lacking gentamicin. […] Plates were then incubated at 37° C. in an atmosphere of 5% CO2 and air for 72 h. […] The plate was then read at 535 nm (excitation) and 590 nm (emission) on a SpectraMax Gemini reader (Molecular Devices) to determine the number of viable cells by measuring the conversion of rezasurin (Alamar blue) to resorufin in response to mitochondrial activity. In order to determine the antiviral effect of these compounds EC50 values were determined by measuring the luciferase activity of the cells. Alamar blue solution was removed from the wells and replaced with 100 μlwell of medium along with 100 μlwell of Bright-Glo reagent and incubated at room temperature for 5 minutes before transferring 100 μlwell to a white bottom 96 well plate to read in a luminometer as described in the Bright-Glo Luciferase Assay System protocol (promega).
(In general: A replicon is a self-replicating genome or part of one, used to study replication in cells.)
A word on the EC50: it is the concentration at which the effect is half-maximal. `CC(C)(C)OC(=O)N[C@H]1CCCCC/C=C\[C@@H]2C[C@@]2(C(=O)NS(=O)(=O)C2CC2)NC(=O)[C@@H]2C[C@@H](OC(=O)N3Cc4cccc(F)c4C3)CN2C1=O` [Danoprevir, reference compound]: the 50% effective concentration (EC50) is 0.001 µM.

Still in this assay, the particulars now being: Huh-7 replicon cells, 72 h; single value, or second value of a pair x:y; read-out: Activity EC50 (μM) (EC50 luciferase readout).
With `CCC(NC1CCCNC1)c1ccc(F)c(Oc2ccccc2)c1F` (stereo not drawn) [Example 18], the half-maximal effective concentration (EC50) was determined as 1.6 µM.

The values are drawn from patent publication US20140288040A1, “SUBSTITUTED BENZYLAMINE COMPOUNDS, THEIR USE IN MEDICINE, AND IN PARTICULAR THE TREATMENT OF HEPATITIS C VIRUS (HCV) INFECTION” (ASTEX THERAPEUTICS LIMITED, priority 2011, published 2014).
